Data reported in PubChem BioAssay AID1919006 (Molecular Pharmacology Branch, DTP, NCI, 2023).

Tested on: 885512-296-R-J2-PDC complex spheroid growth, % test/control
Assay: Anticancer human tumor 885512-296-R-J2-PDC patient-derived breast carcinoma cell line growth inhibition [AhR]
Conditions: for IC50: curve of first compound; for viability, T/C: stronger effect = lower value
How it was run: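 Complex tumor spheroids co-cultured with HUVEC and human MSC stroma; AhR antagonists tested in combination with standard-of-care and investigational agents. Top concentration at or near clinical Cmax (else 10 microM), half-log dilutions; growth expressed as percent test/control.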

[1] = second compound 0.1 µM, first compound 0.00949 µM
[2] = second compound 0.1 µM, first compound 0.03 µM
[3] = second compound 0.1 µM, first compound 0.0949 µM
[4] = second compound 0.1 µM, first compound 0.3 µM
[5] = second compound 0.316 µM, first compound 0.00949 µM
[6] = second compound 0.316 µM, first compound 0.03 µM
[7] = second compound 0.316 µM, first compound 0.0949 µM
[8] = second compound 0.316 µM, first compound 0.3 µM
[9] = second compound 1 µM, first compound 0.00949 µM
[10] = second compound 1 µM, first compound 0.03 µM
[11] = second compound 1 µM, first compound 0.0949 µM
[12] = second compound 1 µM, first compound 0.3 µM
[13] = second compound 3.16 µM, first compound 0.00949 µM
[14] = second compound 3.16 µM, first compound 0.03 µM
[15] = second compound 3.16 µM, first compound 0.0949 µM
[16] = second compound 3.16 µM, first compound 0.3 µM
[17] = second compound 10 µM, first compound 0.00949 µM
[18] = second compound 10 µM, first compound 0.03 µM
[19] = second compound 10 µM, first compound 0.0949 µM
[20] = second compound 10 µM, first compound 0.3 µM
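Further: spheroids exposed to compounds for seven days.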

## CC1COCCN1c1cc(C2(S(C)(=N)=O)CC2)nc(-c2ccnc3[nH]ccc23)n1 (stereo not given) + Cc1ccccc1N=Nc1ccc(NC(=O)c2ccnn2C)c(C)c1
Second compound 0.1 µM
  IC50: 1870 nM
Second compound 0.316 µM
  IC50: 1700 nM
Second compound 1 µM
  IC50: 1790 nM
Second compound 3.16 µM
  IC50: 1840 nM
Second compound 10 µM
  IC50: 637 nM
Second compound 0.1 µM, first compound 0.0316 µM
  viability, T/C: 108%
Second compound 0.1 µM, first compound 0.1 µM
  viability, T/C: 102%
Second compound 0.1 µM, first compound 0.316 µM
  viability, T/C: 96.3%
Second compound 0.1 µM, first compound 1 µM
  viability, T/C: 87%
Second compound 0.1 µM, first compound 3.16 µM
  viability, T/C: 19%
Second compound 0.1 µM, first compound 10 µM
  viability, T/C: 4.98%
Second compound 0.316 µM, first compound 0.0316 µM
  viability, T/C: 103%
Second compound 0.316 µM, first compound 0.1 µM
  viability, T/C: 127%
Second compound 0.316 µM, first compound 0.316 µM
  viability, T/C: 106%
Second compound 0.316 µM, first compound 1 µM
  viability, T/C: 77.9%
Second compound 0.316 µM, first compound 3.16 µM
  viability, T/C: 17.9%
Second compound 0.316 µM, first compound 10 µM
  viability, T/C: 5.69%
Second compound 1 µM, first compound 0.0316 µM
  viability, T/C: 108%
Second compound 1 µM, first compound 0.1 µM
  viability, T/C: 117%
Second compound 1 µM, first compound 0.316 µM
  viability, T/C: 95%
Second compound 1 µM, first compound 1 µM
  viability, T/C: 83.6%
Second compound 1 µM, first compound 3.16 µM
  viability, T/C: 17.4%
Second compound 1 µM, first compound 10 µM
  viability, T/C: 5.01%
Second compound 3.16 µM, first compound 0.0316 µM
  viability, T/C: 90%
Second compound 3.16 µM, first compound 0.1 µM
  viability, T/C: 92%
Second compound 3.16 µM, first compound 0.316 µM
  viability, T/C: 97.6%
Second compound 3.16 µM, first compound 1 µM
  viability, T/C: 85.7%
Second compound 3.16 µM, first compound 3.16 µM
  viability, T/C: 17.9%
Second compound 3.16 µM, first compound 10 µM
  viability, T/C: 5.33%
Second compound 10 µM, first compound 0.0316 µM
  viability, T/C: 56.9%
Second compound 10 µM, first compound 0.1 µM
  viability, T/C: 53.3%
Second compound 10 µM, first compound 0.316 µM
  viability, T/C: 49.6%
Second compound 10 µM, first compound 1 µM
  viability, T/C: 48.2%
Second compound 10 µM, first compound 3.16 µM
  viability, T/C: 13.4%
Second compound 10 µM, first compound 10 µM
  viability, T/C: 5.82%

## Nc1ncn(C2CC(O)C(CO)S2)c(=O)n1 (stereo not given) + Cc1ccccc1N=Nc1ccc(NC(=O)c2ccnn2C)c(C)c1
Second compound 0.1 µM
  IC50: 206 nM
Second compound 0.316 µM
  IC50: 182 nM
Second compound 1 µM
  IC50: 189 nM
Second compound 3.16 µM
  IC50: 262 nM
Second compound 10 µM
  IC50: 88.2 nM
Second compound 0.1 µM, first compound 0.000949 µM
  viability, T/C: 92.7%
Second compound 0.1 µM, first compound 0.003 µM
  viability, T/C: 114%
[1]
  viability, T/C: 106%
[2]
  viability, T/C: 97.3%
[3]
  viability, T/C: 70.5%
[4]
  viability, T/C: 40.2%
Second compound 0.316 µM, first compound 0.000949 µM
  viability, T/C: 121%
Second compound 0.316 µM, first compound 0.003 µM
  viability, T/C: 108%
[5]
  viability, T/C: 134%
[6]
  viability, T/C: 117%
[7]
  viability, T/C: 63%
[8]
  viability, T/C: 40%
Second compound 1 µM, first compound 0.000949 µM
  viability, T/C: 106%
Second compound 1 µM, first compound 0.003 µM
  viability, T/C: 131%
[9]
  viability, T/C: 135%
[10]
  viability, T/C: 116%
[11]
  viability, T/C: 62.3%
[12]
  viability, T/C: 41.8%
Second compound 3.16 µM, first compound 0.000949 µM
  viability, T/C: 96.9%
Second compound 3.16 µM, first compound 0.003 µM
  viability, T/C: 104%
[13]
  viability, T/C: 106%
[14]
  viability, T/C: 101%
[15]
  viability, T/C: 69%
[16]
  viability, T/C: 47.4%
Second compound 10 µM, first compound 0.000949 µM
  viability, T/C: 52.6%
Second compound 10 µM, first compound 0.003 µM
  viability, T/C: 50.1%
[17]
  viability, T/C: 57.8%
[18]
  viability, T/C: 61.1%
[19]
  viability, T/C: 46.2%
[20]
  viability, T/C: 33.3%

## O=C(C=Cn1cnc(-c2cc(C(F)(F)F)cc(C(F)(F)F)c2)n1)NNc1cnccn1 + Cc1ccccc1N=Nc1ccc(NC(=O)c2ccnn2C)c(C)c1
Second compound 0.1 µM
  IC50: 72.9 nM
Second compound 0.316 µM
  IC50: 71 nM
Second compound 1 µM
  IC50: 68.1 nM
Second compound 3.16 µM
  IC50: 64.8 nM
Second compound 10 µM
  IC50: 40.4 nM
[1]
  viability, T/C: 111%
[2]
  viability, T/C: 113%
[3]
  viability, T/C: 31.6%
[4]
  viability, T/C: 4.42%
Second compound 0.1 µM, first compound 0.949 µM
  viability, T/C: 2.04%
Second compound 0.1 µM, first compound 3 µM
  viability, T/C: 0.74%
[5]
  viability, T/C: 114%
[6]
  viability, T/C: 121%
[7]
  viability, T/C: 27.2%
[8]
  viability, T/C: 4.07%
Second compound 0.316 µM, first compound 0.949 µM
  viability, T/C: 1.17%
Second compound 0.316 µM, first compound 3 µM
  viability, T/C: 0.77%
[9]
  viability, T/C: 118%
[10]
  viability, T/C: 115%
[11]
  viability, T/C: 23.7%
[12]
  viability, T/C: 4.28%
Second compound 1 µM, first compound 0.949 µM
  viability, T/C: 1.23%
Second compound 1 µM, first compound 3 µM
  viability, T/C: 1.12%
[13]
  viability, T/C: 99.1%
[14]
  viability, T/C: 89.9%
[15]
  viability, T/C: 30.1%
[16]
  viability, T/C: 4.05%
Second compound 3.16 µM, first compound 0.949 µM
  viability, T/C: 1.22%
Second compound 3.16 µM, first compound 3 µM
  viability, T/C: 0.73%
[17]
  viability, T/C: 54.6%
[18]
  viability, T/C: 64.4%
[19]
  viability, T/C: 22.7%
[20]
  viability, T/C: 3.99%
Second compound 10 µM, first compound 0.949 µM
  viability, T/C: 1.13%
Second compound 10 µM, first compound 3 µM
  viability, T/C: 0.63%
